This is an account of results in US10941145B2, “Toll-like receptor 7 (TLR7) agonists having a benzotriazole moiety, conjugates thereof, and methods and uses therefor” (BRISTOL-MYERS SQUIBB COMPANY, priority 2017, dated 2021).

The test system of one experiment is interleukin 6 (IL-6). Nature of the experiment: Interleukin 6 (IL-6) induction in human whole blood. It is filed as cell-based. As to conditions: 37° C., 20 h, AlphaLISA. As to the method: This example describes a method for assaying interleukin 6 induction by compounds disclosed in this specification.
Compounds diluted in DMSO were transferred to individual wells of a Matrix Technologies clear, V-bottom 384-well plate using ECHO acoustic liquid handling technology (25 nL per well). Human whole-blood samples (25 uL) were added to each well using a CyBio FeliX liquid handling instrument. The plate was shaken on a plate shaker for three min before the reaction mixtures at 37° C. for 20 h. Basel RPMI 1640 medium (supplemented with L-glutamine) was then added to each well (25 uL per well) prior to liberating plasma from each sample by centrifugation (450×g, 5 min, ambient temperature). Treated plasma samples (3 uL) were subsequently transferred to individual wells of a white, shallow, 384-well ProxiPlate (Perkin Elmer) using the FeliX liquid handling instrument and their interleukin 6 levels were measured using AlphaLISA technology as described by the manufacturer, PerkinElmer. Data analyses software was used to determine compound EC50 values where the baseline was established using average DMSO values and 100% induction established using reference compound values at the highest concentration tested. EC50's can be determined with software such as Graphpad Prism™.

Another experiment has as its target T1, human TLR7 (Homo sapiens, UniProt Q9NYK1).
T1 construct: host or cells: HEK-Blue TLR7 cells (engineered human embryonic kidney cells)
T1 sequence (Q9NYK1 27-1049): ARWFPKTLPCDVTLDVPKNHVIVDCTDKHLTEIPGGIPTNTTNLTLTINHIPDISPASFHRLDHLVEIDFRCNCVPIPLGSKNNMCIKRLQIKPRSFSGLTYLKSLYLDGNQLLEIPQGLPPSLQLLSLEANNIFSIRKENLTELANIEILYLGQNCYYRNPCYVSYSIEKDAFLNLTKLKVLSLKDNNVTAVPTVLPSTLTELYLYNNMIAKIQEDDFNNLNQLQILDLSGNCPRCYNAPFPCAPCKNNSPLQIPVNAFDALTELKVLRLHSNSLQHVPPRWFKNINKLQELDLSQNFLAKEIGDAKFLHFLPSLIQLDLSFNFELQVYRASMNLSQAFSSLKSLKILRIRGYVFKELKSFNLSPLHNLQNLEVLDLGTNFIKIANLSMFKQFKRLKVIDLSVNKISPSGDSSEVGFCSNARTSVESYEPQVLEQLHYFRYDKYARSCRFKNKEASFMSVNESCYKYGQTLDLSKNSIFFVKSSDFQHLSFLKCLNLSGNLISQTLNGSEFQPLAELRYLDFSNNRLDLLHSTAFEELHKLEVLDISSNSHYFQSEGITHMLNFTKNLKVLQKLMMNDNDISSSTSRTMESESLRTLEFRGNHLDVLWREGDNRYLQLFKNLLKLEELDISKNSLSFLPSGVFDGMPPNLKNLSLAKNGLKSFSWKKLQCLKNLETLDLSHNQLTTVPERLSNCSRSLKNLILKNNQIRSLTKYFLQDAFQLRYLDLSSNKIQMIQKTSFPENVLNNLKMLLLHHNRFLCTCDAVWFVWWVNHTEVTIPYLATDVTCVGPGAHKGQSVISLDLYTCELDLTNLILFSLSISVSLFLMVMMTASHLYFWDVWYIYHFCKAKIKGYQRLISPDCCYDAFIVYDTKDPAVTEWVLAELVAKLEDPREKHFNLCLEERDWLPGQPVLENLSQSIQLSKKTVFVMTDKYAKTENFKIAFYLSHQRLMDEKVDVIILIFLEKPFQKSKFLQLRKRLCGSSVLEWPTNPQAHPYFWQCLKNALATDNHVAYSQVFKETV
Nature of the experiment: HEK-Blue TLR7 reporter assay (TLR7 agonism). The format is cell-based. As to conditions: HEK-Blue TLR7 cells, human TLR7-SEAP reporter, 18 h treatment. How it is done: This example describes a method for assaying TLR7 agonist activity of the compounds disclosed in this specification.
HEK-Blue™ TLR7 cells were added to each well of a 384-well tissue-culture plate (15,000 cells per well) and incubated 16-18 h at 37° C., 5% CO2. Compounds (100 nl) were dispensed into wells containing the HEK-Blue™ TLR cells and the treated cells were incubated at 37° C., 5% CO2. After 18 h treatment ten microliters of freshly-prepared Quanti-Blue™ reagent (Invivogen) was added to each well, incubated for 30 min (37° C., 5% CO2) and SEAP levels measured using an Envision plate reader (OD=620 nm).

In another experiment the test system is IFN-α. As to conditions: fold less potent than the corresponding purine-8-one compound; cited from earlier work.

On to `CCCCOc1nc(N)c2nc(O)n(Cc3ccc4c(c3)nnn4CCO)c2n1` [Ia-01], for which the 50% effective concentration (EC50) in the experiment with interleukin 6 (IL-6) amounted to 37 nM; at human TLR7, 5.4 nM.

On to `CCCCOc1nc(N)c2nc(O)n(Cc3ccc4c(c3)nnn4CCCl)c2n1` [Ia-02], for which the concentration for a half-maximal effect (EC50) came out at 53 nM in the experiment on interleukin 6 (IL-6) and 26 nM on human TLR7.

`CCCCNCCn1nnc2cc(Cn3c(O)nc4c(N)nc(OCCCC)nc43)ccc21` [Ia-03]: the 50% effective concentration (EC50) with interleukin 6 (IL-6) turned out to be 16.8 nM; at human TLR7, 2.3 nM.

Regarding `CCCCOc1nc(N)c2nc(O)n(Cc3ccc4c(c3)nnn4CCNC3CC3)c2n1` [Ia-04], the EC50 in the experiment with interleukin 6 (IL-6) came to 15.3 nM; on human TLR7, 4 nM.

Turning to `CCCCOc1nc(N)c2nc(O)n(Cc3ccc4c(c3)nnn4CCNC3CCC3)c2n1` [Ia-05], the 50% effective concentration (EC50) came to 22.5 nM in the experiment on interleukin 6 (IL-6) and 0.9 nM on human TLR7.

For the molecule `CCCCOc1nc(N)c2nc(O)n(Cc3ccc4c(c3)nnn4CCNC3COC3)c2n1` [Ia-06], the EC50 in the experiment with interleukin 6 (IL-6) is 56.2 nM; on human TLR7 it was 11 nM.

As to `CCCCOc1nc(N)c2nc(O)n(Cc3ccc4c(c3)nnn4CCNCC3COC3)c2n1` [Ia-07], the 50% effective concentration (EC50) in the experiment on interleukin 6 (IL-6) was 19.7 nM; on human TLR7 it was 2.4 nM.

`CCCCOc1nc(N)c2nc(O)n(Cc3ccc4c(c3)nnn4CCNC3CN(C(=O)OC(C)(C)C)C3)c2n1` [Ia-08]: at human TLR7, the concentration giving a half-maximal response (EC50) amounted to 113 nM. This counts as sub-micromolar.

In the case of `CCCCOc1nc(N)c2nc(O)n(Cc3ccc4c(c3)nnn4CCNCc3ccccc3)c2n1` [Ia-09], the EC50 in the experiment with interleukin 6 (IL-6) came out at 44 nM; on human TLR7, 24 nM.

For `CCCCOc1nc(N)c2nc(O)n(Cc3ccc4c(c3)nnn4CCNCc3ccncc3)c2n1` [Ia-10], the EC50 in the experiment with interleukin 6 (IL-6) is 18.2 nM; on human TLR7 it was 7.2 nM.

In the case of `CCCCOc1nc(N)c2c(n1)N(Cc1cccc(CN3CCCC3)c1)CC(=O)N2` [Vesatolimod, vesatolimod], the “potency less than that of the corresponding purine-8-one compound, as measured by IFN-α induction” value in the experiment on IFN-α is reported as 100 ×.
